Assay results reported in patent publication US7109338B2, “1,2-disubstituted 1,4-dihydro-4-oxoquinoline compounds” (priority 1999, dated 2006).
In brackets after ≈: the same amount, converted by molar mass.

Legend:
[1] = test system: Poliovirus type 1 (Polio 1, Sabin); assay: microbe, parasite or virus in culture; assay type: cell-based; conditions: for IC50: Enterovirus C, HeLa S3, read-out: IC50 Polio 1
[2] = test system: echovirus type 11 (Echo 11, Gregory); assay: In vitro anti-picornavirus activity (MTT), Echo 11; assay type: cell-based; conditions: HeLa-S3 cells, MTT method, 37° C.; for IC50: Enterovirus B
[3] = test system: coxsackievirus type A7 (CA7); assay: In vitro anti-picornavirus activity (MTT), CA7; assay type: cell-based; conditions: HeLa-S3 cells, MTT method, 37° C.; for IC50: Coxsackievirus
[4] = test system: coxsackievirus type B4 (CB4,JVB); assay: In vitro anti-picornavirus activity (MTT), CB4; assay type: cell-based; conditions: HeLa cells, MTT method, 37° C.; for IC50: Coxsackievirus
[5] = test system: human rhinovirus type 1B (HRV 1B, B632); assay: Anti-rhinovirus activity (MTT), HRV1B; assay type: cell-based; set-up: Anti-Rhinovirus activity, HRV1B: unit not given here; conditions: for IC50: Human rhinovirus sp., read-out: IC50 HRV1B
HRV 2 (HGP) = assay: Anti-rhinovirus activity (MTT), HRV2; assay type: cell-based, human rhinovirus; set-up: Anti-Rhinovirus activity, HRV2: unit not given here; conditions: for IC50: Human rhinovirus sp., read-out: IC50 HRV2
HRV 89 (41617-Gallo) = assay: Anti-rhinovirus activity (MTT), HRV89; assay type: cell-based, human rhinovirus; set-up: Anti-Rhinovirus activity, HRV89: unit not given here; conditions: for IC50: Human rhinovirus sp., read-out: IC50 HRV89
[6] = Cytotoxicity (MTT, without virus), HeLa; conditions: human, HeLa cells (uninfected)
[7] = Cytotoxicity (MTT, without virus), HeLa-S3; conditions: human, HeLa-S3 cells (uninfected)
[8] = Cytotoxicity (MTT, without virus), HeLa(Ohio); conditions: human, HeLa (Ohio strain) cells (uninfected)
HRV1A (E28) = assay: Anti-rhinovirus activity (MTT), HRV1A; assay type: cell-based, human rhinovirus; set-up: Anti-Rhinovirus activity, HRV1A: unit not given here; conditions: for IC50: Human rhinovirus sp., HeLa, read-out: IC50 HRV 1A
HRV14 (1059) = assay: Anti-rhinovirus activity (MTT), HRV14; assay type: cell-based, human rhinovirus; set-up: Anti-Rhinovirus activity, HRV14: unit not given here; conditions: for IC50: Human rhinovirus sp., read-out: IC50 HRV 14
HRV3(FEB) = assay: Anti-rhinovirus spectrum (MTT), HRV3; assay type: cell-based, human rhinovirus; set-up: Anti-Rhinovirus activity, HRV3: unit not given here; conditions: HRV3
HRV5 = assay: Anti-rhinovirus spectrum (MTT), HRV5; assay type: cell-based, human rhinovirus; set-up: Anti-Rhinovirus activity, HRV5: unit not given here; conditions: HRV5
HRV8(MRH) = assay: Anti-rhinovirus spectrum (MTT), HRV8; assay type: cell-based, human rhinovirus; set-up: Anti-Rhinovirus activity, HRV8: unit not given here; conditions: HRV8
HRV10 (204-CV14) = assay: Anti-rhinovirus spectrum (MTT), HRV10; assay type: cell-based, human rhinovirus; set-up: Anti-Rhinovirus activity, HRV10: unit not given here; conditions: HRV10
HRV13 (353) = assay: Anti-rhinovirus spectrum (MTT), HRV13; assay type: cell-based, human rhinovirus; set-up: Anti-Rhinovirus activity, HRV13: unit not given here; conditions: HRV13
HRV16 (11757) = assay: Anti-rhinovirus spectrum (MTT), HRV16; assay type: cell-based, human rhinovirus; set-up: Anti-Rhinovirus activity, HRV16: unit not given here; conditions: HRV16
HRV21 (47) = assay: Anti-rhinovirus spectrum (MTT), HRV21; assay type: cell-based, human rhinovirus; set-up: Anti-Rhinovirus activity, HRV21: unit not given here; conditions: HRV21
HRV29 (5582) = assay: Anti-rhinovirus spectrum (MTT), HRV29; assay type: cell-based, human rhinovirus; set-up: Anti-Rhinovirus activity, HRV29: unit not given here; conditions: HRV29
HRV31 (41F) = assay: Anti-rhinovirus spectrum (MTT), HRV31; assay type: cell-based, human rhinovirus; set-up: Anti-Rhinovirus activity, HRV31: unit not given here; conditions: HRV31
HRV32 (363) = assay: Anti-rhinovirus spectrum (MTT), HRV32; assay type: cell-based, human rhinovirus; set-up: Anti-Rhinovirus activity, HRV32: unit not given here; conditions: HRV32
HRV33 (1200) = assay: Anti-rhinovirus spectrum (MTT), HRV33; assay type: cell-based, human rhinovirus; set-up: Anti-Rhinovirus activity, HRV33: unit not given here; conditions: HRV33
HRV36 (342H) = assay: Anti-rhinovirus spectrum (MTT), HRV36; assay type: cell-based, human rhinovirus; set-up: Anti-Rhinovirus activity, HRV36: unit not given here; conditions: HRV36
HRV39 (209) = assay: Anti-rhinovirus spectrum (MTT), HRV39; assay type: cell-based, human rhinovirus; set-up: Anti-Rhinovirus activity, HRV39: unit not given here; conditions: HRV39
HRV41 (56110) = assay: Anti-rhinovirus spectrum (MTT), HRV41; assay type: cell-based, human rhinovirus; set-up: Anti-Rhinovirus activity, HRV41: unit not given here; conditions: HRV41
HRV50(A2#58) = assay: Anti-rhinovirus spectrum (MTT), HRV50; assay type: cell-based, human rhinovirus; set-up: Anti-Rhinovirus activity, HRV50: unit not given here; conditions: HRV50
HRV61 (6669-CV39) = assay: Anti-rhinovirus spectrum (MTT), HRV61; assay type: cell-based, human rhinovirus; set-up: Anti-Rhinovirus activity, HRV61: unit not given here; conditions: HRV61
[9] = test system: clinical isolate (89229T); assay: microbe, parasite or virus in culture; assay type: cell-based, human rhinovirus; set-up: Anti-Rhinovirus activity, Clinical isolated strain: unit not given here; conditions: Clinical isolated strain
HeLa cells = assay: Cytotoxicity (MTT, without virus), HeLa; conditions: HeLa, no virus, incubated for 4 days
HeLa-S3 cells = assay: Cytotoxicity (MTT, without virus), HeLa-S3; conditions: HeLa-S3, no virus, incubated for 4 days
HeLa (Ohio strain)cells = assay: Cytotoxicity (MTT, without virus), HeLa(Ohio); conditions: HeLa(Ohio), no virus, incubated for 4 days
[10] = HRV1B, HeLa (Ohio strain) cells, MTT method, 33° C.
[11] = HRV2, HeLa (Ohio strain) cells, MTT method, 33° C.
[12] = HRV89, HeLa (Ohio strain) cells, MTT method, 33° C.
[13] = HRV14, HeLa (Ohio strain) cells, MTT method, 33° C.
[14] = HeLa (Ohio strain) cells, MTT method, 33° C.

CCn1c(-c2ccco2)cc(=O)c2cc(C(C)C)ccc21 [Compound A304, 1-Ethyl-2-(2-furyl)-6-isopropyl-1,4-dihydro-4-oxoquinoline]
IC50 [1]: 0.8 µg/mL (≈ 2.84 µM)
IC50 [2]: 0.35 µg/mL (≈ 1.24 µM)
IC50 [3]: 3.6 µg/mL (≈ 12.8 µM)
IC50 [4]: 1.9 µg/mL (≈ 6.75 µM)
IC50 [5, 10]: 0.76 µg/mL (≈ 2.7 µM)
IC50 (HRV 2 (HGP); [11]): 0.34 µg/mL (≈ 1.21 µM)
IC50 (HRV 89 (41617-Gallo); [12]): 0.9 µg/mL (≈ 3.2 µM)
melting point: 70 to 73 °C
CC50 at 4 days [6]: 18 µg/mL (≈ 64 µM)
CC50 at 4 days [7]: > 20 µg/mL
CC50 at 4 days [8]: 19 µg/mL (≈ 67.5 µM)

CCn1c2c(c(=O)c3cc(C(C)C)ccc31)Cc1ccsc1-2 [Compound D50, 10-Ethyl-7-isopropyl-5,10-dihydro-4H-thieno[3′,2′:4,5]cyclopenta[1,2-b]quinolin-5-one]
IC50 [1]: 0.64 µg/mL (≈ 2.07 µM)
IC50 [2]: 0.27 µg/mL (≈ 0.873 µM)
IC50 [3]: 1.9 µg/mL (≈ 6.14 µM)
IC50 [4]: 0.82 µg/mL (≈ 2.65 µM)
IC50 (HRV1A (E28); HRV1A): 2.2 µg/mL (≈ 7.11 µM)
IC50 [5, 10]: 0.25 µg/mL (≈ 0.808 µM)
IC50 (HRV 2 (HGP); [11]): 0.2 µg/mL (≈ 0.646 µM)
IC50 (HRV14 (1059); [13]): 1.3 µg/mL (≈ 4.2 µM)
IC50 (HRV 89 (41617-Gallo); [12]): 0.41 µg/mL (≈ 1.32 µM)
melting point: 168 to 169 °C
CC50 at 4 days [6]: 7.8 µg/mL (≈ 25.2 µM)
CC50 at 4 days [7]: > 10 µg/mL
CC50 at 4 days [8]: > 10 µg/mL

CCn1c2c(c(=O)c3cc(CC(C)C)ccc31)Cc1cc(OC)ccc1-2 [Compound B12]
IC50 Polio 1 [1]: 0.39 µg/mL (≈ 1.12 µM)
IC50 Echo 11 [2]: 0.19 µg/mL (≈ 0.547 µM)
IC50 CA7 [3]: 2.0 µg/mL (≈ 5.76 µM)
IC50 CB4 [4]: 0.63 µg/mL (≈ 1.81 µM)
Anti-Rhinovirus activity, HRV1A (HRV1A (E28); HRV1A): >2.5
IC50 HRV 1A (HRV1A (E28); [14]): >2.5 µg/mL
Anti-Rhinovirus activity, HRV1B ([5]; HRV1B): 0.25
IC50 HRV1B [5, 14]: 0.25 µg/mL (≈ 0.72 µM)
Anti-Rhinovirus activity, HRV2 (HRV 2 (HGP); HRV2): 0.31
IC50 HRV2 (HRV 2 (HGP); [14]): 0.31 µg/mL (≈ 0.892 µM)
Anti-Rhinovirus activity, HRV14 (HRV14 (1059); HRV14): 0.43
IC50 HRV 14 (HRV14 (1059); [14]): 0.43 µg/mL (≈ 1.24 µM)
Anti-Rhinovirus activity, HRV89 (HRV 89 (41617-Gallo); HRV89): 0.31
IC50 HRV89 (HRV 89 (41617-Gallo); [14]): 0.31 µg/mL (≈ 0.892 µM)
Anti-Rhinovirus activity, HRV3 (HRV3(FEB)): 0.52
Anti-Rhinovirus activity, HRV5 (HRV5): 0.29
Anti-Rhinovirus activity, HRV8 (HRV8(MRH)): 0.32
Anti-Rhinovirus activity, HRV10 (HRV10 (204-CV14)): 0.43
Anti-Rhinovirus activity, HRV13 (HRV13 (353)): 0.091
Anti-Rhinovirus activity, HRV16 (HRV16 (11757)): 1.4
Anti-Rhinovirus activity, HRV21 (HRV21 (47)): 0.17
Anti-Rhinovirus activity, HRV29 (HRV29 (5582)): 0.44
Anti-Rhinovirus activity, HRV31 (HRV31 (41F)): 0.11
Anti-Rhinovirus activity, HRV32 (HRV32 (363)): 0.33
Anti-Rhinovirus activity, HRV33 (HRV33 (1200)): 0.12
Anti-Rhinovirus activity, HRV36 (HRV36 (342H)): 0.21
Anti-Rhinovirus activity, HRV39 (HRV39 (209)): 0.38
Anti-Rhinovirus activity, HRV41 (HRV41 (56110)): 0.11
Anti-Rhinovirus activity, HRV50 (HRV50(A2#58)): 0.12
Anti-Rhinovirus activity, HRV61 (HRV61 (6669-CV39)): 0.31
Anti-Rhinovirus activity, Clinical isolated strain [9]: 0.46
Cytotoxicity CC50 HeLa (HeLa cells): >2.5 µg/mL
Cytotoxicity CC50 HeLa-S3 (HeLa-S3 cells): >2.5 µg/mL
Cytotoxicity CC50 HeLa(Ohio) (HeLa (Ohio strain)cells): >2.5 µg/mL

CCn1c(-c2ccc(OC)c(C)c2)c(C)c(=O)c2c(C)c(OCC(C)C)ccc21 [Compound A191, 1-Ethyl-2-(3-methyl-4-methoxyphenyl)-3,5-dimethyl-6-isobutoxy-1,4-dihydro-4-oxoquinoline]
IC50 [1]: 0.4 µg/mL (≈ 1.02 µM)
IC50 [2]: 0.19 µg/mL (≈ 0.483 µM)
IC50 [3]: 2.5 µg/mL (≈ 6.35 µM)
IC50 [4]: 1.6 µg/mL (≈ 4.07 µM)
IC50 [5, 10]: 1.3 µg/mL (≈ 3.3 µM)
IC50 (HRV 2 (HGP); [11]): 0.15 µg/mL (≈ 0.381 µM)
IC50 (HRV 89 (41617-Gallo); [12]): 0.2 µg/mL (≈ 0.508 µM)
melting point: 149 °C
CC50 at 4 days [6]: > 4 µg/mL
CC50 at 4 days [7]: > 4 µg/mL
CC50 at 4 days [8]: > 4 µg/mL

CCn1c2c(c(=O)c3cc(C(C)C)ccc31)Cc1c-2ccn1C [Compound D53, 4-Ethyl-7-isopropyl-1-methyl-4,9-dihydro-10H-pyrrolo[2′,3′:4,5]cyclopenta[1,2-b]quinolin-9-one]
IC50 [1]: 1.8 µg/mL (≈ 5.87 µM)
IC50 [2]: 0.68 µg/mL (≈ 2.22 µM)
IC50 [3]: > 10 µg/mL
IC50 [4]: > 3.3 µg/mL
IC50 (HRV1A (E28); HRV1A): > 10 µg/mL
IC50 [5, 10]: 1.6 µg/mL (≈ 5.22 µM)
IC50 (HRV 2 (HGP); [11]): 0.91 µg/mL (≈ 2.97 µM)
IC50 (HRV14 (1059); [13]): 2.3 µg/mL (≈ 7.51 µM)
IC50 (HRV 89 (41617-Gallo); [12]): 1.4 µg/mL (≈ 4.57 µM)
melting point: 91 to 93 °C
CC50 at 4 days [6]: > 10 µg/mL
CC50 at 4 days [7]: > 10 µg/mL
CC50 at 4 days [8]: > 10 µg/mL
